These results are taken from US11311567B2, “Cytochrome P450 enzyme complexes and methods of treatment using the same” (Innovation Hammer LLC, priority 2004, dated 2022).

For data set [1] the following is noted: basis for selecting preferred oxidants; cited from earlier work.
The subject of data set [2] is human CPR (hCPR). Nature of the data set: NADPH-dependent reduction of cytochrome C by CPR in microsomes after treatment with substrates. Conditions: microsomes quantified against CPR and Cc; Cc oxidase activity inhibited by potassium cyanide. The class given is biochemical. The source says:
The following example illustrates an application of human P450 compositions according to the present invention. Procedures followed previously described methods, e.g., U.S. Pat. No. 6,020,288; M. Markwell, et al., Methods of Enzymology 72:296-303 (1981); C. A. Mihaliak, et al., Methods in plant biochemistry 19:261-279 (1993); R. Donaldson, et al., Arch. Biochem. Biophys. 152:199-215 (1972); and M. Persans, et al., Plant Physiol. 109:1483-1490 (1995)).
Methods. CPR substrates have been assayed on various tissues (e.g., U.S. Pat. No. 6,020,288); therefore, response to human CPR (hCPR) was examined under controlled conditions on live index organisms. The direct effects of substrates on hCPR were measured by preparation of microsomes for quantification against CPR and Cc. Controls included equal concentrations of each individual treatment or substrate in surfactant and water. Untreated controls were maintained under identical conditions of culture. Oxidase activity of Cc was inhibited by potassium cyanide. The reaction was initiated by addition of Cc wherein NADPH-dependent reduction of Cc was monitored for increases in absorbance.

In the case of nitrobenzoate, the “one-electron reduction potential (E0)” value in data set [1] was −396 mV. Take `O=C(O)CO` [glycolate]: the “one-electron reduction potential (E0)” value in data set [1] is given as −290 mV.

Take `Cc1cc2nc3c(=O)[nH]c(=O)nc-3n(C[C@H](O)[C@H](O)[C@H](O)COP(=O)(O)O)c2cc1C` [FMN, flavin mononucleotide]: in data set [2], the “induction relative to components tested” value is “over 4.5 times”. For the same compound, in data set [1], the “one-electron reduction potential (E0)” value was −313 mV.
